Experiments:
[1] = system: hepatitis C virus; conditions: as disclosed in U.S. Patent Application Publication No. 2004-0162318; cited from earlier work
[2] = settling from suspension; type: physicochemical
From the text: (§1) The first embodiment of the present invention is directed to a substantially pure polymorphic form A of 5-cyclopropyl-2-(4-fluorophenyl)-6-[(2-hydroxyethyl)(methylsulfonyl)amino]-N-methyl-1-benzofuran-3-carboxamide. The terms “polymorphic form”, “crystal modification”, “polymorph”, and “crystalline form” are used interchangeably herein. As used herein, the terms “isolated” and/or “substantially pure” mean more than 50% of the crystalline 5-cyclopropyl-2-(4-fluorophenyl)-6-[(2-hydroxyethyl)(methylsulfonyl)amino]-N-methyl-1-benzofuran-3-carboxamide or salt thereof is present in the form described herein and preferably at least 70%, more preferably at least 80%, and most preferably at least 90% of the crystalline form described herein is present. […] The peaks shown therein include: 8.4°, 9.0°, 9.8°, 10.1°, 12.6°, 12.9°, 13.2°, 13.4°, 15.9°, 16.4°, 16.8°, 17.4°, 17.9°, 18.4°, 18.5°, 19.0°, 19.2°, 19.7°, 19.8°, 20.0°, 20.2°, 20.5°, 21.0°, 21.7°, 22.2°, 22.6°, 23.6°, 24.0°, 24.5°, 24.7°, 24.9°, 25.3°, 25.9°, 26.0°, 26.5°, 26.9°, 27.3°, 27.6°, 28.1°, 28.7°, […], 30.0°, 30.7°, 31.0°, 31.9°, 32.1°, 32.5°, 33.6°, 34.4°, 34.8°, 35.1°, 35.6°, 36.7°, 36.9°, 37.5°, 38.4°, 38.8°, 39.2° and 39.6° (2θ degrees); one of ordinary skill in the art will readily understand that an about 0.1° to about 0.2° variation for peak positions is typical. […]

[3] = thermodynamic stability of the crystalline form; type: physicochemical; conditions: as indicated by its high melting point of about 175° C.
From the text: as §1

[4] = hygroscopicity on exposure to air; type: physicochemical; conditions: exposed to air for a period of about 1 week
From the text: as §1

Question: With `CNC(=O)c1c(-c2ccc(F)cc2)oc2cc(N(CCO)S(C)(=O)=O)c(C3CC3)cc12` [5-cyclopropyl-2-(4-fluorophenyl)-6-[(2-hydroxyethyl)(methylsulfonyl)amino]-N-methyl-1-benzofuran-3-carboxamide] as the compound, how does the “inhibition of the hepatitis C virus” value [1] read?
Answer: potent inhibitor

Question: With `CNC(=O)c1c(-c2ccc(F)cc2)oc2cc(N(CCO)S(C)(=O)=O)c(C3CC3)cc12` [form A, 5-cyclopropyl-2-(4-fluorophenyl)-6-[(2-hydroxyethyl)(methylsulfonyl)amino]-N-methyl-1-benzofuran-3-carboxamide] as the compound, how does the settling from suspension [2] read?
Answer: tends to settle quickly from suspension

Question: And the “thermodynamic stability of polymorph” value [3]?
Answer: thermodynamically favored stable form

Question: And the hygroscopicity [4]?
Answer: non-hygroscopic

Question: For `CNC(=O)c1c(-c2ccc(F)cc2)oc2cc(N(CCO)S(C)(=O)=O)c(C3CC3)cc12` [form B, 5-cyclopropyl-2-(4-fluorophenyl)-6-[(2-hydroxyethyl)(methylsulfonyl)amino]-N-methyl-1-benzofuran-3-carboxamide], which settling from suspension [2] is on record?
Answer: tends not to settle quickly from suspension

— US20070265335A1, “POLYMORPHS OF 5-CYCLOPROPYL-2-(4-FLUOROPHENYL)-6-[(2-HYDROXYETHYL)(METHYLSUFONYL)AMINO]-N-METHYL-1-BENZOFURAN-3-CARBOXAMIDE AND METHODS OF MAKING THE SAME” (WYETH, priority 2005, published 2007)
